Assay results published in the supplement of paper PMC10307832.

Tests used:
Test in all cases: relative viability (nuclei count vs DMSO), 5 days (fraction); higher = more cells survive
NCI-H2347 = system: NCI-H2347
Summary of the method: (§1)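 Relative viability is defined as nuclei in treated wells over nuclei in vehicle wells. Duplicate plates were run and medians reported. Lung cancer cell lines in 1536-well plates were dosed by pin tool one day after seeding, with one drug or with a fixed anchor-drug dose plus five library-drug doses (not always all listed) in √10 steps, and nuclei were counted after 5 days.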

NCI-H520 = system: NCI-H520
Summary of the method: as §1

NCI-H441 = system: NCI-H441
Summary of the method: as §1

NCI-H1563 = system: NCI-H1563
Summary of the method: as §1

COR-L23 = system: COR-L23
Summary of the method: as §1

NCI-H1793 = system: NCI-H1793
Summary of the method: as §1

201T = system: 201T
Summary of the method: as §1

HCC-15 = system: HCC-15
Summary of the method: as §1

EPLC-272H = system: EPLC-272H
Summary of the method: as §1

NCI-H2023 = system: NCI-H2023
Summary of the method: as §1

NCI-H647 = system: NCI-H647
Summary of the method: as §1

UMC-11 = system: UMC-11
Summary of the method: as §1

NCI-H2405 = system: NCI-H2405
Summary of the method: as §1

H3255 = system: H3255
Summary of the method: as §1

NCI-H3122 = system: NCI-H3122
Summary of the method: as §1

NCI-H1734 = system: NCI-H1734
Summary of the method: as §1

NCI-H322M = system: NCI-H322M
Summary of the method: as §1

PC-14 = system: PC-14
Summary of the method: as §1

LOU-NH91 = system: LOU-NH91
Summary of the method: as §1

COc1cc2nccc(Oc3ccc(NC(=O)Nc4cc(C)on4)c(Cl)c3)c2cc1OC [Tivozanib] + C[C@]1(O)C[C@@H](c2nc(-c3ccc4ccc(-c5ccccc5)nc4c3)c3c(N)nccn32)C1 [Linsitinib] (partner 1 µM)
relative viability (NCI-H2347; first compound 0.005 µM): 0.711 | relative viability (NCI-H2347; first compound 0.01581 µM): 0.897 | relative viability (NCI-H2347; first compound 0.05 µM): 0.966 | relative viability (NCI-H2347; first compound 0.1581 µM): 1.1 | relative viability (NCI-H2347; first compound 0.5 µM): 0.92 | relative viability (NCI-H520; first compound 0.005 µM): 0.838 | relative viability (NCI-H520; first compound 0.01581 µM): 0.966 | relative viability (NCI-H520; first compound 0.05 µM): 0.883 | relative viability (NCI-H520; first compound 0.1581 µM): 0.935 | relative viability (NCI-H520; first compound 0.5 µM): 0.821 | relative viability (NCI-H441; first compound 0.005 µM): 0.588 | relative viability (NCI-H441; first compound 0.01581 µM): 0.56 | relative viability (NCI-H441; first compound 0.05 µM): 0.559 | relative viability (NCI-H441; first compound 0.1581 µM): 0.481 | relative viability (NCI-H441; first compound 0.5 µM): 0.559 | relative viability (NCI-H1563; first compound 0.005 µM): 1.19 | relative viability (NCI-H1563; first compound 0.01581 µM): 1.32 | relative viability (NCI-H1563; first compound 0.05 µM): 1.24 | relative viability (NCI-H1563; first compound 0.1581 µM): 1.12 | relative viability (NCI-H1563; first compound 0.5 µM): 1.22 | relative viability (COR-L23; first compound 0.005 µM): 0.848 | relative viability (COR-L23; first compound 0.01581 µM): 0.886 | relative viability (COR-L23; first compound 0.05 µM): 0.994 | relative viability (COR-L23; first compound 0.1581 µM): 0.887 | relative viability (COR-L23; first compound 0.5 µM): 0.819 | relative viability (NCI-H1793; first compound 0.005 µM): 0.778 | relative viability (NCI-H1793; first compound 0.01581 µM): 0.954 | relative viability (NCI-H1793; first compound 0.05 µM): 0.774 | relative viability (NCI-H1793; first compound 0.5 µM): 1.19 | relative viability (201T; first compound 0.005 µM): 1.1 | relative viability (201T; first compound 0.01581 µM): 0.984 | relative viability (201T; first compound 0.05 µM): 1.06 | relative viability (201T; first compound 0.1581 µM): 0.937 | relative viability (201T; first compound 0.5 µM): 1.02 | relative viability (HCC-15; first compound 0.005 µM): 0.9 | relative viability (HCC-15; first compound 0.01581 µM): 0.878 | relative viability (HCC-15; first compound 0.05 µM): 0.9 | relative viability (HCC-15; first compound 0.1581 µM): 0.875 | relative viability (HCC-15; first compound 0.5 µM): 0.897 | relative viability (EPLC-272H; first compound 0.005 µM): 1.1 | relative viability (EPLC-272H; first compound 0.01581 µM): 1.14 | relative viability (EPLC-272H; first compound 0.05 µM): 1.17 | relative viability (EPLC-272H; first compound 0.1581 µM): 0.955 | relative viability (EPLC-272H; first compound 0.5 µM): 1.12 | relative viability (NCI-H2023; first compound 0.005 µM): 0.612 | relative viability (NCI-H2023; first compound 0.01581 µM): 0.669 | relative viability (NCI-H2023; first compound 0.05 µM): 0.761 | relative viability (NCI-H2023; first compound 0.1581 µM): 0.671 | relative viability (NCI-H2023; first compound 0.5 µM): 0.715 | relative viability (NCI-H647; first compound 0.005 µM): 1.08 | relative viability (NCI-H647; first compound 0.01581 µM): 1.09 | relative viability (NCI-H647; first compound 0.05 µM): 1.26 | relative viability (NCI-H647; first compound 0.1581 µM): 1.21 | relative viability (NCI-H647; first compound 0.5 µM): 1.18 | relative viability (UMC-11; first compound 0.005 µM): 1.08 | relative viability (UMC-11; first compound 0.01581 µM): 1.01 | relative viability (UMC-11; first compound 0.05 µM): 1.06 | relative viability (UMC-11; first compound 0.5 µM): 0.997 | relative viability (NCI-H2405; first compound 0.005 µM): 0.945 | relative viability (NCI-H2405; first compound 0.01581 µM): 0.996 | relative viability (NCI-H2405; first compound 0.05 µM): 0.943 | relative viability (NCI-H2405; first compound 0.1581 µM): 0.89 | relative viability (NCI-H2405; first compound 0.5 µM): 0.897 | relative viability (H3255; first compound 0.005 µM): 0.965 | relative viability (H3255; first compound 0.01581 µM): 0.933 | relative viability (H3255; first compound 0.05 µM): 1.09 | relative viability (H3255; first compound 0.1581 µM): 1.05 | relative viability (H3255; first compound 0.5 µM): 0.891 | relative viability (NCI-H3122; first compound 0.005 µM): 1.1 | relative viability (NCI-H3122; first compound 0.01581 µM): 1.04 | relative viability (NCI-H3122; first compound 0.05 µM): 1 | relative viability (NCI-H3122; first compound 0.1581 µM): 1.19 | relative viability (NCI-H3122; first compound 0.5 µM): 1.06 | relative viability (NCI-H1734; first compound 0.005 µM): 0.847 | relative viability (NCI-H1734; first compound 0.01581 µM): 0.795 | relative viability (NCI-H1734; first compound 0.05 µM): 1.03 | relative viability (NCI-H1734; first compound 0.1581 µM): 0.674 | relative viability (NCI-H1734; first compound 0.5 µM): 0.858 | relative viability (NCI-H322M; first compound 0.005 µM): 0.942 | relative viability (NCI-H322M; first compound 0.01581 µM): 0.961 | relative viability (NCI-H322M; first compound 0.05 µM): 0.989 | relative viability (NCI-H322M; first compound 0.1581 µM): 0.92 | relative viability (NCI-H322M; first compound 0.5 µM): 0.825 | relative viability (PC-14; first compound 0.005 µM): 0.939 | relative viability (PC-14; first compound 0.01581 µM): 0.957 | relative viability (PC-14; first compound 0.05 µM): 1.06 | relative viability (PC-14; first compound 0.1581 µM): 1.01 | relative viability (PC-14; first compound 0.5 µM): 1.01 | relative viability (LOU-NH91; first compound 0.005 µM): 0.934 | relative viability (LOU-NH91; first compound 0.01581 µM): 0.941 | relative viability (LOU-NH91; first compound 0.05 µM): 0.981 | relative viability (LOU-NH91; first compound 0.1581 µM): 0.933 | relative viability (LOU-NH91; first compound 0.5 µM): 1
